# Data as given in article PMC9986241 (Signal Transduction and Targeted Therapy, 2023).
# “And” between values parts separate entries of the source, which are not always exact repeats. Equal entries are not always repeated.
# How the values were obtained:
# [1] = target: T1, AMPKα1(h) (Homo sapiens, UniProt Q13131); test: KinaseProfiler enzyme profiling; format: biochemical
# T1 construct: purchased Eurofins KinaseProfiler
# Method: (§1) Enzyme profiling services were provided by KinaseProfiler™ (Eurofin, Brussels, Belgium). The concentration of erianin was 100 nM, and total 70 kinases were tested in this in vitro screening and profiling services (2 repetitions). For more details, refer to the manufacturer’s instructions (www.eurofinsdiscoveryservices.com).
# [2] = target: T2, AMPKα2(h) (Homo sapiens, UniProt P54646); test: KinaseProfiler enzyme profiling; format: biochemical
# T2 construct: purchased Eurofins KinaseProfiler
# Method: as §1
# [3] = target: T3, ATM(h) (Homo sapiens, UniProt Q13315); test: KinaseProfiler enzyme profiling; format: biochemical
# T3 construct: purchased Eurofins KinaseProfiler
# Method: as §1
# [4] = target: T4, B-Raf(h) (Homo sapiens, UniProt P15056); test: KinaseProfiler enzyme profiling; format: biochemical
# T4 construct: purchased Eurofins KinaseProfiler
# Method: as §1
# [5] = target: T5, CDK4/cyclinD3(h) (Homo sapiens, UniProt P11802); test: KinaseProfiler enzyme profiling; format: biochemical
# T5 construct: purchased Eurofins KinaseProfiler
# Method: as §1
# [6] = target: T6, EGFR(L861Q)(h) (Homo sapiens, UniProt P00533, L861Q); test: KinaseProfiler enzyme profiling; format: biochemical
# T6 construct: purchased Eurofins KinaseProfiler
# Method: as §1
# [7] = target: T7, EphB4(h) (Homo sapiens, UniProt P54760); test: KinaseProfiler enzyme profiling; format: biochemical
# T7 construct: purchased Eurofins KinaseProfiler
# Method: as §1
# [8] = target: T8, IKKβ(h) (Homo sapiens, UniProt O14920); test: KinaseProfiler enzyme profiling; format: biochemical
# T8 construct: purchased Eurofins KinaseProfiler
# Method: as §1
# [9] = target: T9, JAK3(h) (Homo sapiens, UniProt P52333); test: KinaseProfiler enzyme profiling; format: biochemical
# T9 construct: purchased Eurofins KinaseProfiler
# Method: as §1
# [10] = target: T10, JNK1α1(h) (Homo sapiens, UniProt P45983); test: KinaseProfiler enzyme profiling; format: biochemical
# T10 construct: purchased Eurofins KinaseProfiler
# Method: as §1
# [11] = target: T11, PAK3(h) (Homo sapiens, UniProt O75914); test: KinaseProfiler enzyme profiling; format: biochemical
# T11 construct: purchased Eurofins KinaseProfiler
# Method: as §1
# [12] = target: T12, PDGFRα(h) (Homo sapiens, UniProt P16234); test: KinaseProfiler enzyme profiling; format: biochemical
# T12 construct: purchased Eurofins KinaseProfiler
# Method: as §1
# [13] = target: T13, PDGFRβ(h) (Homo sapiens, UniProt P09619); test: KinaseProfiler enzyme profiling; format: biochemical
# T13 construct: purchased Eurofins KinaseProfiler
# Method: as §1
# [14] = target: T14, PKBβ(h) (Homo sapiens, UniProt P31751); test: KinaseProfiler enzyme profiling; format: biochemical
# T14 construct: purchased Eurofins KinaseProfiler
# Method: as §1
# [15] = target: T15, ROCK-II(h) (Homo sapiens, UniProt O75116); test: KinaseProfiler enzyme profiling; format: biochemical
# T15 construct: purchased Eurofins KinaseProfiler
# Method: as §1
# [16] = target: T16, CRAF (306-end) (Homo sapiens, UniProt P04049); test: SPR; format: binding; settings: CM5 chip, Biacore T200, read-out: equilibrium dissociation constant (KD)
# T16 construct: purchased
# Method: (§2) 293 T cells were transfected with plasmids of pcDNA3.1-3×Flag-C-MAP2K1/MAP2K1 (K97A, M146A), MAP2K2/MAP2K1 (K101A, M150A), or CRAF/CRAF (K375A). […]
# (§3) After incubation, a series concentration of erianin (RAF inhibitor LY3009120 and MEK inhibitor cobimetinib were simultaneously added as positive control) flowed through the protein-CM5 system. The binding was tested and analyzed using Biacore T200 instrument.
# [17] = target: MEK1 full length (Homo sapiens, UniProt Q02750); test: SPR; format: binding; settings: CM5 chip, Biacore T200, read-out: equilibrium dissociation constant (KD)
# Method: as §2, §3
# [18] = target: MEK2 full length (Homo sapiens, UniProt P36507); test: SPR; format: binding; settings: CM5 chip, Biacore T200, read-out: equilibrium dissociation constant (KD)
# Method: as §2, §3
# [19] = target: T17, CRAF (Homo sapiens, UniProt P04049, Y340E/Y341E); test: Luminescent ADP detection (ADP-glo kinase) assay; format: biochemical; settings: 1–100 nM
# T17 construct: purchased Signal Chem R01-13G
# Method: (§4) After incubated with 100–400 μM ATP in kinase assay buffer for 30 min, the phosphorylation of the substrate/total substrate protein was detected by western blotting. For ADP-glo kinase assay, unconsumed ATP was depleted with the addition of ADP-Glo™. Followed by kinase detection reagent to convert ADP to ATP, consumption of ATP was detected to evaluate the kinase activity. For more details, refer to the manufacturer’s instructions of ADP-Glo™ Kinase Assay.
# [20] = target: MEK1 (Homo sapiens, UniProt Q02750); test: Luminescent ADP detection (ADP-glo kinase) assay; format: biochemical; settings: 1–100 nM
# Method: as §4
# [21] = target: MEK2 (Homo sapiens, UniProt P36507); test: Luminescent ADP detection (ADP-glo kinase) assay; format: biochemical; settings: 1–100 nM
# Method: as §4
# [22] = target: T18, CRAF (Homo sapiens, UniProt P04049); test: Erianin-conjugated Sepharose 4B bead pull-down assay; format: binding; settings: in vitro and ex vivo (A375 cell lysate)
# T18 construct: endogenous in cells; host or cells: A375
# Method: as §2
# Cell lysate (500 μg) or recombinant proteins (200 ng) were incubated with erianin-CNBr activated sepharose 4B overnight at 4 °C, and the protein-beads complex was washed four times by the use of rotational incubator to remove non-specific binding. Western blotting was developed to check the pull-down bands.
# [23] = test system: SK-MEL-2, A375, SK-MEL-28, and HCT 116 cells; test: Anchorage-independent cell growth assay; format: cell-based, human; settings: both BRAF and RAS mutant cell lines
# Method: The synergism and antagonism (CI value) were determined and analyzed using CompuSyn 1.0.
# [24] = test system: MAPK signaling pathway (phospho-CRAF, phospho-MEK1/2, phospho-ERK1/2); test: Western blotting of MAPK signaling pathway in cells; settings: both BRAF V600E and RAS mutant cell lines, 24 h
# Excerpt: Data were shown as means ± S.D. of three independent experiments. The asterisks (*p < 0.05, **p < 0.01, ***p < 0.001) indicate a significant difference in the expression of phosphorylation of ERK1 or ERK2 vs total ERK1 or ERK2 in control and erianin-treated group. g The luminescent ADP detection assay was developed to detect the luminescence signal of ATP-to-ADP using the same concentration kinases and substrates described in above kinase assay.
# Protein was quantified using a BCA assay kit and then western blotting was conducted.
# [25] = target: T19, CDK1/cyclinB(h) (Homo sapiens, UniProt P06493); test: KinaseProfiler enzyme profiling; format: biochemical
# T19 construct: purchased Eurofins KinaseProfiler
# Method: as §1
# [26] = target: T20, MSK2(h) (Homo sapiens, UniProt O75676); test: KinaseProfiler enzyme profiling; format: biochemical
# T20 construct: purchased Eurofins KinaseProfiler
# Method: as §1
# [27] = target: T21, MST3(h) (Homo sapiens, UniProt Q9Y6E0); test: KinaseProfiler enzyme profiling; format: biochemical
# T21 construct: purchased Eurofins KinaseProfiler
# Method: as §1
# [28] = target: T22, NEK2(h) (Homo sapiens, UniProt P51955); test: KinaseProfiler enzyme profiling; format: biochemical
# T22 construct: purchased Eurofins KinaseProfiler
# Method: as §1
# [29] = target: T23, PDK1(h) (Homo sapiens, UniProt O15530); test: KinaseProfiler enzyme profiling; format: biochemical
# T23 construct: purchased Eurofins KinaseProfiler
# Method: as §1
# [30] = target: T24, cSRC(h) (Homo sapiens, UniProt P12931); test: KinaseProfiler enzyme profiling; format: biochemical
# T24 construct: purchased Eurofins KinaseProfiler
# Method: as §1
# [31] = target: T25, p70S6K(h) (Homo sapiens, UniProt P23443); test: KinaseProfiler enzyme profiling; format: biochemical
# T25 construct: purchased Eurofins KinaseProfiler
# Method: as §1
# T3 sequence (Q13315 whole entry): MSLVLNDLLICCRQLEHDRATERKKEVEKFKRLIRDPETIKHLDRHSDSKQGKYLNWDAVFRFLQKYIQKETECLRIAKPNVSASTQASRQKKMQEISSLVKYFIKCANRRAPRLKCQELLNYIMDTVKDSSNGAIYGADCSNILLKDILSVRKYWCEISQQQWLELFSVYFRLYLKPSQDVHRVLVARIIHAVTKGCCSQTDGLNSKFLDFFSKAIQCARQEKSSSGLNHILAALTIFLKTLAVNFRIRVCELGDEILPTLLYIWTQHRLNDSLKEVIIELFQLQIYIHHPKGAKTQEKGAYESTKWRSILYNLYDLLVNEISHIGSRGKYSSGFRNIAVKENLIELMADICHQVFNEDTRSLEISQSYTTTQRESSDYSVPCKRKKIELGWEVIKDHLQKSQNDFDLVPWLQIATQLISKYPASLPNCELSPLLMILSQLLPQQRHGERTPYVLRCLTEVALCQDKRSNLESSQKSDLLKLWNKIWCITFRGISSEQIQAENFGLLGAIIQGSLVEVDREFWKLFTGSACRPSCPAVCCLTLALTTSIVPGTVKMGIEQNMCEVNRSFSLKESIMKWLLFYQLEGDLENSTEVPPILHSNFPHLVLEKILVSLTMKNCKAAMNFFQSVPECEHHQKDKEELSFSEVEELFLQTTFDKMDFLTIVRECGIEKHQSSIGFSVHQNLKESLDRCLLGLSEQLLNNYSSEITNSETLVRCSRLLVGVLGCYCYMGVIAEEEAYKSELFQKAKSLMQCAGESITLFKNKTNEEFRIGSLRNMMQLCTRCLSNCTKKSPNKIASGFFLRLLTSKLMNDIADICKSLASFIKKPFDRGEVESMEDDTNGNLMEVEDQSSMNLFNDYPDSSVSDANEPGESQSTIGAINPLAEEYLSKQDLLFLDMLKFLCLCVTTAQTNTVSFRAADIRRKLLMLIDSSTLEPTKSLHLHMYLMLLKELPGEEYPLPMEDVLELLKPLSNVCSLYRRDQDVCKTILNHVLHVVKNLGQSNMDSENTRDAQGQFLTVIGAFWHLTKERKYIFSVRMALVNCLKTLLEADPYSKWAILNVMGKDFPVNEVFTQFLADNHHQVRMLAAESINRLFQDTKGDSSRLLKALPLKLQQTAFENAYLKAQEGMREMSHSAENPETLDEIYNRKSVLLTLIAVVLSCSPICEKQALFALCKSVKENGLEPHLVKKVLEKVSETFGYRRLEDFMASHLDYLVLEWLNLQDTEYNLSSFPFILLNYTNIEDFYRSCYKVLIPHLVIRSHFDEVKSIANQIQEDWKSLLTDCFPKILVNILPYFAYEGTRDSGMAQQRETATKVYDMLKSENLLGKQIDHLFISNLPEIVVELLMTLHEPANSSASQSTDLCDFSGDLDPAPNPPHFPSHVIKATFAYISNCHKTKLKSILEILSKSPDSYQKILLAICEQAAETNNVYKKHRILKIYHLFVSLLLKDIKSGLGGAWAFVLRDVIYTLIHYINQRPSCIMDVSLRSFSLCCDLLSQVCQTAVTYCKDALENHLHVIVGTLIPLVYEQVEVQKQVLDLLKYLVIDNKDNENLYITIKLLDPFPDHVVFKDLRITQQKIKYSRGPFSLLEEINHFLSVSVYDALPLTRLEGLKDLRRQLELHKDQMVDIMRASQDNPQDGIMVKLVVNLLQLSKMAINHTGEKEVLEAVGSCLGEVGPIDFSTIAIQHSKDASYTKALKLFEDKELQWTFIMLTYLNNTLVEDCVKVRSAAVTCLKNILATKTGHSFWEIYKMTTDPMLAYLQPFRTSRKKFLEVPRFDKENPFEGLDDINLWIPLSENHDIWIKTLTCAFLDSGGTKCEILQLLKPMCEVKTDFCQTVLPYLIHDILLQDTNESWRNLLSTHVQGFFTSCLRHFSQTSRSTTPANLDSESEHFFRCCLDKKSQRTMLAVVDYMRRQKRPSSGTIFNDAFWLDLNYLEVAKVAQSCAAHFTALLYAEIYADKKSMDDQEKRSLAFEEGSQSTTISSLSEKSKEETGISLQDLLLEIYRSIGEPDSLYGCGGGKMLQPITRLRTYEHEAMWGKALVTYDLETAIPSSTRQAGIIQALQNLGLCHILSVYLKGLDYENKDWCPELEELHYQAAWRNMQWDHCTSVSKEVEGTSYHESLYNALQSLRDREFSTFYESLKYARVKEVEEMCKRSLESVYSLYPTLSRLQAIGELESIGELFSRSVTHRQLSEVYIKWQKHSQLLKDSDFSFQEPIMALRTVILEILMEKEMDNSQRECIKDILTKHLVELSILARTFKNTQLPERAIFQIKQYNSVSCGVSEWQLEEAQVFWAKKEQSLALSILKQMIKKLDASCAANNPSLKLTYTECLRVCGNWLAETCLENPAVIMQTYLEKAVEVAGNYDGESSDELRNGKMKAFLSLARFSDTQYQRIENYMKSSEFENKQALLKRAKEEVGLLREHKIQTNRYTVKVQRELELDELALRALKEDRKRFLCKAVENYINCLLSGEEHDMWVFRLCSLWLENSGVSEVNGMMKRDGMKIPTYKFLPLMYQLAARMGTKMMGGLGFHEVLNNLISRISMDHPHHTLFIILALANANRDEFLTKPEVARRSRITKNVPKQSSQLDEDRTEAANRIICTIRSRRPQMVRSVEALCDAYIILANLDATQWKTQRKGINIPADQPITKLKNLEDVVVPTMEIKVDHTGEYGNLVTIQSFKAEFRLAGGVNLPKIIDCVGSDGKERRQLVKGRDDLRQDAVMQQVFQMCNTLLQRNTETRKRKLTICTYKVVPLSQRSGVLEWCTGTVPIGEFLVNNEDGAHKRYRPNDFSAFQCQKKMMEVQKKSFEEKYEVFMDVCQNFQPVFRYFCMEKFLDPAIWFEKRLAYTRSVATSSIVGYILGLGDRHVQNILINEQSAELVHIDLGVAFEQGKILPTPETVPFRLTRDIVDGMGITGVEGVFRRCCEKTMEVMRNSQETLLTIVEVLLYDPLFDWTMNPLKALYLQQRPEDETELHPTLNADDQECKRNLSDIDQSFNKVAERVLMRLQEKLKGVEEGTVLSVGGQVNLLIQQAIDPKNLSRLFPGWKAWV
# T10 sequence (P45983 1-384 isoform P45983-2): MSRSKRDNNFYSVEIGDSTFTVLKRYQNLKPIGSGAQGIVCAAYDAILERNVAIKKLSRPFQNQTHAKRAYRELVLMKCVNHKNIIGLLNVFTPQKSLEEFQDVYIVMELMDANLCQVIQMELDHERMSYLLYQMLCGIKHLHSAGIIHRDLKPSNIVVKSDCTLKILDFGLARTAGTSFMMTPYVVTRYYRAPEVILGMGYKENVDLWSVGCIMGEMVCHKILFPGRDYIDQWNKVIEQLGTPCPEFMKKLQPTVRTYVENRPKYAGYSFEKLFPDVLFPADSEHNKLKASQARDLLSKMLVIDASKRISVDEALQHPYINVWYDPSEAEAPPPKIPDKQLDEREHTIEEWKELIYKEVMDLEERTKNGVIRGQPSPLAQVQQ
# T20 sequence (O75676 whole entry): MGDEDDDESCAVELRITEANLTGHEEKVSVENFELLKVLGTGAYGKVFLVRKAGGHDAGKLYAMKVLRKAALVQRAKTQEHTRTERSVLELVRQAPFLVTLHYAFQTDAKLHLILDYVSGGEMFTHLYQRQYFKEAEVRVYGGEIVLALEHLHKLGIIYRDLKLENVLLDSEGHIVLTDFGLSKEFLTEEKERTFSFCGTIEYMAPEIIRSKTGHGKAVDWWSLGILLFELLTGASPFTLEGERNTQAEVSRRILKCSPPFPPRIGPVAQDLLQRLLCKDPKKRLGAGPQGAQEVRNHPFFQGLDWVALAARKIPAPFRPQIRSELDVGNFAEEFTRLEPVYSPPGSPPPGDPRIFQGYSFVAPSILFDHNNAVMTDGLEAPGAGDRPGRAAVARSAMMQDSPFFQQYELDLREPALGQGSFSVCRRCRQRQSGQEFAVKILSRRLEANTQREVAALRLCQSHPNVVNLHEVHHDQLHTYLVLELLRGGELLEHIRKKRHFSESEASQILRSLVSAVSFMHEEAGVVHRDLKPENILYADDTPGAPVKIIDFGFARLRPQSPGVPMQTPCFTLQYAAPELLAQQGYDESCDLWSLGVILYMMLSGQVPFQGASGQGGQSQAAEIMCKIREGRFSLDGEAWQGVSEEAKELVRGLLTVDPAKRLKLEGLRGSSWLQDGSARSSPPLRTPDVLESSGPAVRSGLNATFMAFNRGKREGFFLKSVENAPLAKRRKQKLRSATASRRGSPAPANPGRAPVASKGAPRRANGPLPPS
# T16 sequence (P04049 306-648 limits assumed): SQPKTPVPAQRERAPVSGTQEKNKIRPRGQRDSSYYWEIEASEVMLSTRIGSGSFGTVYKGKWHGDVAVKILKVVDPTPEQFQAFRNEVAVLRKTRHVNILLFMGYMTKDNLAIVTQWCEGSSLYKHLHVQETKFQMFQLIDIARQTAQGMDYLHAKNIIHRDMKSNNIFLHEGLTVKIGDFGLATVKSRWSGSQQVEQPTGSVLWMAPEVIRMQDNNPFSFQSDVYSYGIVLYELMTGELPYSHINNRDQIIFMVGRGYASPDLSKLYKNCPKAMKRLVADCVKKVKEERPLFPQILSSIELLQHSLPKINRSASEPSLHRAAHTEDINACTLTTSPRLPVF
# Chain of MEK1 full length (Q02750 whole entry): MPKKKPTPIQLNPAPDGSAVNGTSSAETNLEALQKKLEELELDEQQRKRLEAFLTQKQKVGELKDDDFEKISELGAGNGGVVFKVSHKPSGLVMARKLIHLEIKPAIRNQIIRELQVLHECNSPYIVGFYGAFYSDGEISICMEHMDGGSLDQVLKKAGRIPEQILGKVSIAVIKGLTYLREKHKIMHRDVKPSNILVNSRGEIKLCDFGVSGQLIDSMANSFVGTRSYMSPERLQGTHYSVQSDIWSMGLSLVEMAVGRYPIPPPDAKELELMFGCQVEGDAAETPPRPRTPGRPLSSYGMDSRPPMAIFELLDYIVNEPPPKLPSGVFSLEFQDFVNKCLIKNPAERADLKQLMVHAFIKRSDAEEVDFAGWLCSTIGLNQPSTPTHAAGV
smiles,measurement,setting,value
COc1ccc(CCc2cc(OC)c(OC)c(OC)c2)cc1O [Erianin],activity at 0.1 µM,[1],108%
same,activity at 0.1 µM,[2],118%
same,activity at 0.1 µM,[3],111%
same,activity at 0.1 µM,[4],103%
same,activity at 0.1 µM,[5],105%
same,activity at 0.1 µM,[6],93%
same,activity at 0.1 µM,[7],108%
same,activity at 0.1 µM,[8],95%
same,activity at 0.1 µM,[9],98%
same,activity at 0.1 µM,[10],101%
same,activity at 0.1 µM,[11],99%
same,activity at 0.1 µM,[12],91%
same,activity at 0.1 µM,[13],133%
same,activity at 0.1 µM,[14],97%
same,activity at 0.1 µM,[15],112%
same,Kd,[16],89.6 µM and 89.7 µM
same,Kd,[17],68.5 µM
same,Kd,[18],115 µM
same,kinase activity (luminescence signal),[19],inhibited the kinase activity
same,kinase activity (luminescence signal),[20],inhibited the kinase activity
same,kinase activity (luminescence signal),[21],inhibited the kinase activity
same,binding in pull-down,[22],directly bound
same,colonies formation,[23],markedly suppress
same,constitutive activation of MAPK signaling pathway,[24],inhibited constitutive activation of MAPK signaling pathway
C=C1C(=O)[C@]23[C@H](O)[C@H]1CC[C@H]2[C@@]12CO[C@]3(O)[C@@H](O)[C@@H]1C(C)(C)CC[C@@H]2O [Oridonin],activity at 10 µM,[1]; 10 µM,75%
same,activity at 10 µM,[2]; 10 µM,72%
same,activity at 10 µM,[3]; 10 µM,71%
same,activity at 10 µM,[25],63%
same,activity at 10 µM,[5]; 10 µM,109%
same,activity at 10 µM,[8]; 10 µM,105%
same,activity at 10 µM,[9]; 10 µM,89%
same,activity at 10 µM,[10]; 10 µM,107%
same,activity at 10 µM,[26],69%
same,activity at 10 µM,[27],74%
same,activity at 10 µM,[28],90%
same,activity at 10 µM,[11]; 10 µM,95%
same,activity at 10 µM,[12]; 10 µM,71%
same,activity at 10 µM,[13]; 10 µM,94%
same,activity at 10 µM,[29],69%
same,activity at 10 µM,[14]; 10 µM,106%
same,activity at 10 µM,[15]; 10 µM,88%
same,activity at 10 µM,[30],59%
same,activity at 10 µM,[31],53%
COc1cc2oc(-c3ccc(O)c(O)c3)cc(=O)c2c(O)c1OC [Cirsiliol],activity at 10 µM,[4]; 10 µM,104%
same,activity at 10 µM,[25],97%
same,activity at 10 µM,[6]; 10 µM,108%
same,activity at 10 µM,[7]; 10 µM,86%
same,activity at 10 µM,[26],108%
same,activity at 10 µM,[27],103%
same,activity at 10 µM,[28],105%
same,activity at 10 µM,[29],107%
same,activity at 10 µM,[30],133%
same,activity at 10 µM,[31],95%
